Measured values taken from the OPERA property sets (Mansouri et al. 2018).

First: CCCN(/C=N/c1ccn([C@H]2CC[C@@H](CO)O2)c(=O)n1)CCC
Second: CCN(/C=N/c1ccn([C@H]2CC[C@@H](CO)O2)c(=O)n1)CC
The logP of the first is higher: 0.95 for the first, -0.06 for the second.

First: CC(C)N(C=Nc1ccn(C2CCC(CO)O2)c(=O)n1)C(C)C (stereo not given)
Second: CC(C)N(C=Nc1ccn(C2CC(F)C(CO)O2)c(=O)n1)C(C)C (stereo not given)
The logP of the first is lower: 0.72 for the first, 1.14 for the second.

Compared with CN(C)C=Nc1ccn(C2CCC(CO)O2)c(=O)n1 (stereo not given), CN(C)C=Nc1ccn(C2CC(F)C(CO)O2)c(=O)n1 (stereo not given) is higher in logP: -0.95 for the first, -0.64 for the second.

Compared with O=c1nc(/N=C/N2CCCCC2)ccn1[C@H]1C[C@H](F)[C@@H](CO)O1, O=c1nc(N=CN2CCCC2)ccn1C1CC(F)C(CO)O1 (stereo not given) is lower in logP: 0.36 for the first, -0.16 for the second.

First: O=c1nc(N=CN2CCOCC2)ccn1C1CCC(CO)O1 (stereo not given)
Second: O=c1nc(N=CN2CCCC2)ccn1C1CCC(CO)O1 (stereo not given)
The logP of the first is lower: -0.97 for the first, -0.47 for the second.

Compared with Nc1ccn([C@H]2C[C@H](F)[C@@H](CO)O2)c(=O)n1, CCN(C=Nc1ccn(C2CC(F)C(CO)O2)c(=O)n1)CC (stereo not given) is higher in logP: -0.89 for the first, 0.23 for the second.

Going from O=c1nc(/N=C/N2CCCCC2)ccn1[C@H]1CC[C@@H](CO)O1 to O=c1nc(N=CN2CCOCC2)ccn1C1CC(F)C(CO)O1 (stereo not given), the logP falls from 0.06 to -0.68.

Molecule CCCN(C=Nc1ccn(C2CC(F)C(CO)O2)c(=O)n1)CCC (stereo not given) has a logP of 1.35.
